From patent US20190135887A1, “METABOLICALLY STABLE SPEXIN PEPTIDE ANALOGS” (UNIVERSITÉ DE STRASBOURG, priority 2016, published 2019)
Read-outs that look alike come from different tables or passages of the source. Peptide text beside a SMILES is read from it. * marks the point of attachment. Propanoyl(3-C8F17) = O=C(CCC(F)(F)C(F)(F)C(F)(F)C(F)(F)C(F)(F)C(F)(F)C(F)(F)C(F)(F)F)*

Tests used:
GalR2 = molecular target: T1, GalR2 (Homo sapiens, UniProt O43603); test: Calcium mobilization in CHO cells expressing GalR2; assay type: cell-based
T1 construct: expressed in transfected cells; host or cells: CHO cells
T1 sequence (O43603 1-387): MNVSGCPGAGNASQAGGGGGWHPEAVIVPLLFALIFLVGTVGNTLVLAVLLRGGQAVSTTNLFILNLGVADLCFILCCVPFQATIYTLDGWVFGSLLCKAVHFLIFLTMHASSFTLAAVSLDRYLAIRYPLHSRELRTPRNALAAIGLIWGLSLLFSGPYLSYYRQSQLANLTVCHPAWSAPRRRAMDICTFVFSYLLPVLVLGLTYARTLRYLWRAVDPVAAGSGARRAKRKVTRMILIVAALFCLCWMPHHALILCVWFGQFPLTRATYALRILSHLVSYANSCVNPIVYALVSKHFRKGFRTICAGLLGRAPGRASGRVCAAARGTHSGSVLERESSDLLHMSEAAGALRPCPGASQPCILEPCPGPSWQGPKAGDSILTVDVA

human GALR1 = molecular target: T2, human GALR1 (Homo sapiens, UniProt P47211); test: Forskolin-induced cAMP accumulation, GloSensor cAMP assay in HEK293 cells; assay type: cell-based; conditions: HEK293 cells stably expressing GalR1, 1 μM compound
T2 construct: expressed in transfected cells; transiently transfected with pGloSensor-22F
T2 sequence (P47211 1-349): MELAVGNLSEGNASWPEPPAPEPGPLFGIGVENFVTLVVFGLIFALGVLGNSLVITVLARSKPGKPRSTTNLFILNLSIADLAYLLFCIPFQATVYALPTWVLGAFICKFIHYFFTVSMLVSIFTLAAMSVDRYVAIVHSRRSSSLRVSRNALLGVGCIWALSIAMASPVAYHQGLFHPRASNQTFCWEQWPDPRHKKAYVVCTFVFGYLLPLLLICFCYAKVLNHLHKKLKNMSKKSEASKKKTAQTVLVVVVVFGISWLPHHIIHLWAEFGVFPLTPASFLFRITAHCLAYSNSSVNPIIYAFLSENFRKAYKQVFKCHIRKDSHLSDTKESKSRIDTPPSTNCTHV
Protocol: The effects were examined by using the GloSensor™ cAMP Assay according to manufacturer recommendations (Promega, Madison Wis., USA) with a few modifications. […] Following pre-equilibration for 2 h at 25° C., D-luciferin-loaded cells were distributed (100,000 cells per well) in a white 96-well plate and kinetic recordings of their luminescence level were acquired using a FlexStation II (Molecular Devices, Sunnyvale Calif., USA). Compounds to be tested were injected at various concentrations 10 min before forskolin addition (0.5 μM final concentration) and readings were pursued for 30 min. Experiments were conducted at 25° C. in the presence of 0.1 mM IBMX to prevent the degradation of cAMP by phospodiesterases.

[1] = Solubility in water by visual observation; assay type: physicochemical; conditions: dissolution in water to reach 100 μM
Protocol: The resulting solution was vortexed 1 min following by 1 min in bath sonication. Solubility was then assessed by visual observation of the resulting dispersion (Clear/Cloudy and presence of particulates).

Human plasma stability = assay type: in vitro ADME; conditions: 37° C., 2 h incubation, read-out: Human plasma stability (t1/2)
Protocol: This procedure is designed to determine the stability of a test compound in blood or plasma from human or animal species in a 96-well plate format. The test compound is quantified at 5 time points by HPLC-MS/MS analysis. Test concentration: 1 μM with a final DMSO concentration of 0.5%. Experimental protocol: Blood or plasma are pre-warmed at 37° C. water bath for 5 min, followed by addition of the test compound. The incubation is performed in a 37° C. water bath for 2 h. An aliquot of the incubation mixture is transferred to acetonitrile at 0, 0.5, 1, 1.5 and 2 h, respectively. Samples are then mixed and centrifuged. Supernatants are used for HPLC-MS/MS analysis. Reference compounds Propoxycaine and propantheline are tested simultaneously with the test compound in each assay. Analytical methods Samples are analyzed by HPLC-MS/MS using selected reaction monitoring. The HPLC system consists of a binary LC pump with autosampler, a C-18 column, and a gradient. Conditions may be adjusted as necessary. Data analysis Peak areas corresponding to the test compound are recorded. The compound remaining (%) is calculated by comparing the peak area at each time point to time zero. The half-life is calculated from the slope of the initial linear range of the logarithmic curve of compound remaining (%) vs. time, assuming first order kinetics.

[2] = molecular target: T3, human galanin GAL2 receptor (Homo sapiens, UniProt O43603); test: Radioligand binding assay, [125I]galanin, transfected CHO cell membranes; conditions: read-out: Affinity % of inhibition at 100 nM
T3 construct: expressed in transfected cells; host or cells: CHO cells (membrane homogenates)
T3 sequence (O43603 1-387): T1 sequence (O43603 1-387)
Protocol: Following incubation, the samples are filtered rapidly under vacuum through glass fiber filters (GF/B, Packard) presoaked with 0.3% PEI and rinsed several times with ice-cold 50 mM Tris-HCl using a 96-sample cell harvester (Unifilter, Packard). The filters are dried then counted for radioactivity in a scintillation counter (Topcount, Packard) using a scintillation cocktail (Microscint 0, Packard). The results are expressed as a percent inhibition of the control radioligand specific binding.

[3] = Non-specific adsorption to Eppendorf protein LoBind tubes; conditions: 10 μM in HEPES/BSA buffer
Protocol: The propensity of spexin analogs to bind to Eppendorf protein LoBind tubes was evaluated.
A solution of 10 μM of spexin analogs in solution in HEPES/BSA buffer was added to Eppendorf protein LoBind tubes, stirred for 5 min and vortexed for 2 min. The supernatant was removed from the tube and acetonitrile was added to dissolve the compound adsorbed to the plastic. The amount of peptide recovered was then evaluated by HPLC-MS/MS following the same protocol than above described for plasma stability analysis. The non-specific adsorption of peptides (%) was calculated by comparing the peak area of each compound recovered to that obtained with the same compound in DMSO (prevent the adsorption of the compounds to plastic).

C57BL/6N male mice = test: Tail immersion test (nociception); assay type: in vivo
Protocol: Tail immersion test: Nociception tests were performed on male, awake C57BL/6N male mice (25-30 g weight; Janvier Labs, France). Animals were housed in groups of five per cage and kept under a 12 h/12 h light/dark cycle at 21±1° C. with ad libitum access to food and water. Experiments were performed during the light-on phase of the cycle. Mice were habituated to the testing room and equipment and handled for 1 week before starting behavioural experiments. The nociceptive thermal threshold of mice was determined using the tail immersion test. Mice were restrained in a grid pocket and their tail was immersed in a thermostated water bath. The latency (in sec) for tail withdrawal from hot water (47±0.5° C.) was taken as a measure of the nociceptive response.

[4] = CHO cells expressing GalR2, Fluo-4 AM, 37° C., read-out: EC50 Ca2+ production

Compound | EC50 (GalR2) [nM] | % of activity at 1 μM (human GALR1) [%] | EC50 (GalR2; [4]) [nM] | solubility at 2 min [1] [µM] | half-life at 1 μM (Human plasma stability) [h] | inhibition at 0.1 µM [2] [%] | solubility [1] [µM] | Non-specific adsorption of peptide [3] [%] | tail immersion withdrawal latency (C57BL/6N male mice; 0.1 nmol icv, 15 min, baseline 9.99±0.5 sec) [s] | tail immersion withdrawal latency (C57BL/6N male mice; 0.1 nmol icv, 30 min, baseline 9.99±0.5 sec) [s] | tail immersion withdrawal latency (C57BL/6N male mice; 1 nmol icv, 15 min, baseline 10.12±0.59 sec) [s] | tail immersion withdrawal latency (C57BL/6N male mice; 1 nmol icv, 30 min, baseline 10.12±0.59 sec) [s]
CSCC[C@H](NC(=O)[C@H](C)NC(=O)[C@H](CCC(N)=O)NC(=O)[C@@H]1CCCN1C(=O)[C@@H](NC(=O)[C@H](Cc1c[nH]c2ccccc12)NC(=O)[C@H](CC(N)=O)NC(C)=O)[C@@H](C)O)C(=O)N[C@@H](CC(C)C)C(=O)N[C@@H](Cc1ccc(O)cc1)C(=O)N[C@@H](CC(C)C)C(=O)N[C@@H](CCCCN)C(=O)NCC(=O)N[C@@H](C)C(=O)N[C@@H](CCC(N)=O)C(=O)N[C@@H](CCCCNC(=O)C(CCCNC(=N)N)NC(=O)CNC(=O)C(CCCNC(=N)N)NC(=O)CCC(F)(F)C(F)(F)C(F)(F)C(F)(F)C(F)(F)C(F)(F)C(F)(F)C(F)(F)F)C(N)=O (some centres unmarked) [LE-146] | 8.4 ± 0.7 |  |  |  |  |  |  |  |  |  |  | 
CSCC[C@H](NC(=O)[C@H](C)NC(=O)[C@H](CCC(N)=O)NC(=O)[C@@H]1CCCN1C(=O)[C@@H](NC(=O)[C@H](Cc1c[nH]c2ccccc12)NC(=O)[C@H](CC(N)=O)NC(C)=O)[C@@H](C)O)C(=O)N[C@@H](CC(C)C)C(=O)N[C@@H](Cc1ccc(O)cc1)C(=O)N[C@@H](CC(C)C)C(=O)N[C@@H](CCCCN)C(=O)NCC(=O)N[C@@H](C)C(=O)N[C@@H](CCC(N)=O)C(=O)N[C@@H](CCCCNC(=O)CCC(F)(F)C(F)(F)C(F)(F)C(F)(F)C(F)(F)C(F)(F)C(F)(F)C(F)(F)F)C(N)=O [LE-128] |  | 0 | 2.3 ± 4 |  |  |  |  |  |  |  |  | 
CSCC[C@H](NC(=O)[C@H](C)NC(=O)[C@H](CCC(N)=O)NC(=O)[C@@H]1CCCN1C(=O)[C@@H](NC(=O)[C@H](Cc1c[nH]c2ccccc12)NC(=O)[C@@H](N)CC(N)=O)[C@@H](C)O)C(=O)N[C@@H](CC(C)C)C(=O)N[C@@H](Cc1ccc(O)cc1)C(=O)N[C@@H](CC(C)C)C(=O)N[C@@H](CCCCN)C(=O)NCC(=O)N[C@@H](C)C(=O)N[C@@H](CCC(N)=O)C(N)=O [SPEXIN] |  | 0 |  | > 100 | 2.52 | 68.3 |  |  |  |  |  | 
CSCC[C@H](NC(=O)[C@H](C)NC(=O)[C@H](CCC(N)=O)NC(=O)[C@@H]1CCCN1C(=O)[C@@H](NC(=O)[C@H](Cc1c[nH]c2ccccc12)NC(=O)[C@H](CC(N)=O)NC(=O)[C@H](CCCNC(=N)N)NC(=O)CNC(=O)[C@H](CCCNC(=N)N)NC(=O)CCC(F)(F)C(F)(F)C(F)(F)C(F)(F)C(F)(F)C(F)(F)C(F)(F)C(F)(F)F)[C@@H](C)O)C(=O)N[C@@H](CC(C)C)C(=O)N[C@@H](Cc1ccc(O)cc1)C(=O)N[C@@H](CC(C)C)C(=O)N[C@@H](CCCCN)C(=O)NCC(=O)N[C@@H](C)C(=O)N[C@@H](CCC(N)=O)C(N)=O [LE-130] ({Propanoyl(3-C8F17)}-RGRNWTPQAMLYLKGAQ-NH2) |  | 0 | 0.089 ± 0.04 |  | 5.7 | 98.4 | > 100 | 15 |  |  |  | 
CSCC[C@H](NC(=O)[C@H](C)NC(=O)[C@H](CCC(N)=O)NC(=O)[C@@H]1CCCN1C(=O)[C@@H](NC(=O)[C@H](Cc1c[nH]c2ccccc12)NC(=O)[C@H](CC(N)=O)NC(=O)CCC(F)(F)C(F)(F)C(F)(F)C(F)(F)C(F)(F)C(F)(F)C(F)(F)C(F)(F)F)[C@@H](C)O)C(=O)N[C@@H](CC(C)C)C(=O)N[C@@H](Cc1ccc(O)cc1)C(=O)N[C@@H](CC(C)C)C(=O)N[C@@H](CCCCN)C(=O)NCC(=O)N[C@@H](C)C(=O)N[C@@H](CCC(N)=O)C(N)=O [LE-144] |  | 0 | 0.038 ± 0.008 |  | 2.5 | 100 | > 100 | 42 | 14.26 ± 0.93 | 14.06 ± 0.34 | 15.58 ± 0.61 | 13.94 ± 0.75
